For assay [1], the system named is human prostate cancer LNCaP cells. The experiment in a line: Cytotoxic action on cancer cells (WST-8, 96 hr). The format is cell-based. To be noted: Homo sapiens, LNCaP, 96 h, read-out: LNCaP cytotoxic activity: IC50. Summed up: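 Cells in 10% FBS/RPMI1640 were seeded, cultured overnight at 37 °C with 5% CO2, then exposed to compound for 96 hr. Viable cells were measured with WST-8 against compound-free controls. IC50 was interpolated linearly between the two concentrations bracketing 50% survival.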
On the technique in general: Tetrazolium dyes change colour on reduction, which living cells bring about.

For assay [2], the system named is human acute myeloid leukemia MV-4-11 cell transplanted mouse. The experiment in a line: Antitumor effect in human acute myeloid leukemia MV-4-11 cell transplanted mouse. The format is in vivo. As to conditions: MV4-11, iv, 360 h. The protocol: The in vivo antitumor effect of the compound of the present invention was studied using human acute myeloid leukemia MV-4-11 cell transplanted mouse. MV-4-11 cells were subcutaneously transplanted into the inguinal region of male, 6-week-old BALB/c nude mouse (5×10^6 cells/mouse). The compound of the present invention was administered into the tail vein on days 1, 5, 9, 13 from the time point when the assumed tumor volume determined from 1/2ab^2 (a is major axis and b is minor axis of tumor) reached about 100 mm^3 (day 1). The control group was administered with a solvent, 10% hydroxypropyl-β-cyclodextrin solution. On day 15, the tumor was isolated, the weight was measured, and the tumor growth inhibitory rate IR (%) was calculated by the following formula. tumor growth inhibitory rate IR (%)=(1−tumor weight of administration group/tumor weight of nonadministration control group)×100

Assay [3] deals with BRD4 protein (Homo sapiens (Human), UniProt O60885). The experiment in a line: BRD4 protein degradation inducing action in cancer cells (immunofluorescence, Operetta). The format is cell-based. To be noted: LNCaP cells, 6 hr treatment, fluorescence intensity. An outline of the steps:
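LNCaP prostate cancer cells in 10% FBS/RPMI1640 were exposed to compound for 6 hr at 37° C, then fixed, permeabilized and immunostained for BRD4 with Alexa Fluor 488 or 546 secondary antibodies plus Hoechst nuclear stain. Fluorescence was read by high-content imaging; DC50 is the concentration giving 50% of untreated signal, interpolated linearly between bracketing points.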

[4] abbreviates: read-out: tumor growth inhibitory rate.

Read-outs that look alike come from different tables or passages of the source.

Usually IC50 stands for the point on the concentration scale where inhibition reaches its midpoint. By DC50 is commonly meant the concentration at which degradation of the target reaches its halfway point. Read a low DC50 as degradation at low concentration. Take `COC(=O)C[C@@H]1N=C(c2ccc(-c3ccc(OCC(=O)N[C@H](C(=O)N4C[C@H](O)C[C@H]4C(=O)NCc4ccc(-c5scnc5C)cc4)C(C)(C)C)cc3)cc2)c2c(sc(C)c2C)-n2c(C)nnc21` [Example 61, methyl [(6S)-4-{4′-[2-({(25)-1-[(2S,4R)-4-hydroxy-2-({[4-(4-methyl-1,3-thiazol-5-yl)phenyl]methyl}carbamoyl)pyrrolidin-1-yl]-3,3-dimethyl-1-oxobutan-2-yl}amino)-2-oxoethoxy][1,1′-biphenyl]-4-yl}-2,3,9-trimethyl-6H-thieno[3,2-f][1,2,4]triazolo[4,3-a][1,4]diazepin-6-yl]acetate]: the IC50 in assay [1] amounted to 0.17 nM. Further, the inhibition in vivo at 3 mg/kg in assay [2] (setting [4]) was found to be 97.2%. In addition, half-maximal degradation in assay [3] (DC50) was put at 0.81 nM.
With `COC(=O)C[C@@H]1N=C(c2ccc(-c3ccc(C(=O)N[C@H](C(=O)N4C[C@H](O)C[C@H]4C(=O)N[C@@H](C)c4ccc(-c5scnc5C)cc4)C(C)(C)C)cc3F)cc2)c2c(sc(C)c2C)-n2c(C)nnc21` [Example 62, methyl {(6S)-4-[2′-fluoro-4′-({(2S)-1-[(2S,4R)-4-hydroxy-2-({(1S)-1-[4-(4-methyl-1,3-thiazol-5-yl)phenyl]ethyl}carbamoyl)pyrrolidin-1-yl]-3,3-dimethyl-1-oxobutan-2-yl}carbamoyl) [1,1′-biphenyl]-4-yl]-2,3,9-trimethyl-6H-thieno[3,2-f][1,2,4]triazolo[4,3-a][1,4]diazepin-6-yl}acetate], the IC50 in assay [1] was found to be 0.26 nM. In assay [2] (setting [4]), the inhibition in vivo at 0.3 mg/kg was 95.6% and the inhibition in vivo at 3 mg/kg worked out at 97.4%. Further, it took 0.24 nM to reach half-maximal degradation in assay [3] (DC50).
For `COC(=O)C[C@@H]1N=C(c2ccc(N3CC[C@@H](C(=O)NCCOc4ccc5oc(C(=O)N[C@H](C(=O)N6C[C@H](O)C[C@H]6C(=O)N[C@@H](C)c6ccc(-c7scnc7C)cc6)C(C)(C)C)cc5c4)C3)cc2)c2c(sc(C)c2C)-n2c(C)nnc21` [Example 67, methyl [(6S)-4-(4-{(3R)-3-[(2-{[2-({(2S)-1-[(2S,4R)-4-hydroxy-2-({(1S)-1-[4-(4-methyl-1,3-thiazol-5-yl)phenyl]ethyl}carbamoyl)pyrrolidin-1-yl]-3,3-dimethyl-1-oxobutan-2-yl}carbamoyl]-1-benzofuran-5-yl]oxy}ethyl)carbamoyl]pyrrolidin-1-yl}phenyl)-2,3,9-trimethyl-6H-thieno[3,2-f][1,2,4]triazolo[4,3-a][1,4]diazepin-6-yl]acetate], the 50% inhibitory concentration (IC50) in assay [1] turned out to be 0.47 nM. The inhibition in vivo at 3 mg/kg in assay [2] (dose 3 mg/kg/day, tail vein on days 1, 5, 9, 13, tumor weight on day 15, read-out: tumor growth inhibitory rate) is 97.7%. The compound also registered a DC50 in assay [3] of 0.55 nM.
Consider `COC(=O)C[C@@H]1N=C(c2ccc(-c3ccc(C(=O)N[C@H](C(=O)N4C[C@H](O)C[C@H]4C(=O)N[C@@H](C)c4ccc(-c5scnc5C)cc4)C(C)(C)C)c(F)c3)cc2)c2c(sc(C)c2C)-n2c(C)nnc21` [Example 94, methyl {(6S)-4-[3′-fluoro-4′-({(2S)-1-[(2S,4R)-4-hydroxy-2-({(1S)-1-[4-(4-methyl-1,3-thiazol-5-yl)phenyl]ethyl}carbamoyl)pyrrolidin-1-yl]-3,3-dimethyl-1-oxobutan-2-yl}carbamoyl)[1,1′-biphenyl]-4-yl]-2,3,9-trimethyl-6H-thieno[3,2-f][1,2,4]triazolo[4,3-a][1,4]diazepin-6-yl}acetate], for which, in assay [1], the IC50 was 0.29 nM. For the same compound, in assay [2] (setting [4]), the inhibition in vivo at 3 mg/kg was 98.2%. The DC50 in assay [3] came to 0.64 nM.
In the same order, the values of `COC(=O)C[C@@H]1N=C(c2ccc(-c3ccc4oc(C(=O)N[C@H](C(=O)N5C[C@H](O)C[C@H]5C(=O)N[C@@H](C)c5ccc(-c6scnc6C)cc5)C(C)(C)C)nc4c3)cc2)c2c(sc(C)c2C)-n2c(C)nnc21` [Example 101, methyl [(6S)-4-{4-[2-({(2S)-1-[(2S,4R)-4-hydroxy-2-({(1S)-1-[4-(4-methyl-1,3-thiazol-5-yl)phenyl]ethyl}carbamoyl)pyrrolidin-1-yl]-3,3-dimethyl-1-oxobutan-2-yl}carbamoyl)-1,3-benzoxazol-5-yl]phenyl}-2,3,9-trimethyl-6H-thieno[3,2-f][1,2,4]triazolo[4,3-a][1,4]diazepin-6-yl]acetate] are 0.059 nM, 98.2% and 0.052 nM.
On to `COC(=O)C[C@@H]1N=C(c2ccc(N3CC[C@H](C(=O)Nc4ccc5oc(C(=O)N[C@H](C(=O)N6C[C@H](O)C[C@H]6C(=O)N[C@@H](C)c6ccc(-c7scnc7C)cc6)C(C)(C)C)cc5c4)C3)cc2)c2c(sc(C)c2C)-n2c(C)nnc21` [Example 138, methyl [(6S)-4-{4-[(3S)-3-{[2-({(2S)-1-[(2S,4R)-4-hydroxy-2-({(1S)-1-[4-(4-methyl-1,3-thiazol-5-yl)phenyl]ethyl}carbamoyl)pyrrolidin-1-yl]-3,3-dimethyl-1-oxobutan-2-yl}carbamoyl)-1-benzofuran-5-yl]carbamoyl}pyrrolidin-1-yl]phenyl}-2,3,9-trimethyl-6H-thieno[3,2-f][1,2,4]triazolo[4,3-a][1,4]diazepin-6-yl]acetate], for which, in assay [1], the half-maximal inhibitory concentration (IC50) was found to be 0.24 nM. Further, in assay [2] (setting [4]), the inhibition in vivo at 1 mg/kg worked out at 97.8% and the inhibition in vivo at 3 mg/kg is 98.6%. The DC50 in assay [3] is 0.62 nM.

Source of the values: patent publication US11542273B2, “Amide compound having bet proteolysis-inducing action and medicinal application thereof” (MITSUBISHI TANABE PHARMA CORPORATION, priority 2018, dated 2023).
